Data: publication PMC9056986 (RSC Advances, 2020)

Target: HCV-NS3/4A protease (Hepacivirus hominis (Hepatitis C virus), UniProt O92972)
Experiment: HCV-NS3/4A protease inhibition, in vitro FRET assay
Assay type: biochemical
Conditions: IC50, purified HCV-NS3/4A protease

Chain of HCV-NS3/4A protease (O92972 1027-1207, other chains not shown): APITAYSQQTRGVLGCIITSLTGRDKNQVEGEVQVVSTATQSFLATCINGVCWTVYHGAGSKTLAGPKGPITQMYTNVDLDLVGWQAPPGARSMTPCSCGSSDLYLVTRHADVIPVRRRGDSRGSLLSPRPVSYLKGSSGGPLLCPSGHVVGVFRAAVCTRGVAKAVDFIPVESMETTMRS

Row | Structure (SMILES) | IC50 [µM]
1 | CCn1c(NN)nc2ccc(C)cc2c1=O [Compound 15, 3-Ethyl-2-hydrazinyl-6-methyl-3H-quinazolin-4-one] | 178 ± 3.9
2 | Cc1ccc2nc(NN)n(C)c(=O)c2c1 [Compound 14, 3-Methyl-2-hydrazinyl-6-methyl-3H-quinazolin-4-one] | 25.5 ± 0.55
3 | CCn1c(NN)nc2cc3ccccc3cc2c1=O [Compound 8, 3-Ethyl-2-hydrazinyl-benzo[g]quinazolin-4(3H)-one] | 78.8 ± 1.7
4 | Cn1c(NN)nc2cc3ccccc3cc2c1=O [Compound 7, 3-Methyl-2-hydrazinylbenzo[g]quinazolin-4(3H)-one] | 22.3 ± 0.46
